SMILES strings stand for the structures.

From publication PMC4816213 (Bioorganic & medicinal chemistry letters, 2015) come the findings set out here.

For one assay, the target named is Sigma2. The assay is described as follows: radioligand competition binding. Background: Displacement assays read how much labelled ligand stays bound in the presence of the test substance.
The next assay deals with PBR. Put plainly: radioligand competition binding.
A further assay concerns the target Sigma1. Put plainly: radioligand competition binding.
In another assay the target is NOP (Homo sapiens, UniProt P41146). Put plainly: biochemical.
For a further assay, the target named is DAT (Homo sapiens, UniProt Q01959). Put plainly: biochemical.
The target in the next assay is D5 (Homo sapiens, UniProt P21918). The assay is described as follows: biochemical.
Another assay concerns the target β1 (Homo sapiens, UniProt P08588). Put plainly: biochemical.
In the next assay the target is DOR (Homo sapiens, UniProt P41143). Put plainly: biochemical.
The next assay addresses β3 (Homo sapiens, UniProt P13945). Put plainly: biochemical.
For a further assay, the target named is HERG (Homo sapiens, UniProt Q12809). Put plainly: biochemical.
HERG, sequence (Q12809 whole entry): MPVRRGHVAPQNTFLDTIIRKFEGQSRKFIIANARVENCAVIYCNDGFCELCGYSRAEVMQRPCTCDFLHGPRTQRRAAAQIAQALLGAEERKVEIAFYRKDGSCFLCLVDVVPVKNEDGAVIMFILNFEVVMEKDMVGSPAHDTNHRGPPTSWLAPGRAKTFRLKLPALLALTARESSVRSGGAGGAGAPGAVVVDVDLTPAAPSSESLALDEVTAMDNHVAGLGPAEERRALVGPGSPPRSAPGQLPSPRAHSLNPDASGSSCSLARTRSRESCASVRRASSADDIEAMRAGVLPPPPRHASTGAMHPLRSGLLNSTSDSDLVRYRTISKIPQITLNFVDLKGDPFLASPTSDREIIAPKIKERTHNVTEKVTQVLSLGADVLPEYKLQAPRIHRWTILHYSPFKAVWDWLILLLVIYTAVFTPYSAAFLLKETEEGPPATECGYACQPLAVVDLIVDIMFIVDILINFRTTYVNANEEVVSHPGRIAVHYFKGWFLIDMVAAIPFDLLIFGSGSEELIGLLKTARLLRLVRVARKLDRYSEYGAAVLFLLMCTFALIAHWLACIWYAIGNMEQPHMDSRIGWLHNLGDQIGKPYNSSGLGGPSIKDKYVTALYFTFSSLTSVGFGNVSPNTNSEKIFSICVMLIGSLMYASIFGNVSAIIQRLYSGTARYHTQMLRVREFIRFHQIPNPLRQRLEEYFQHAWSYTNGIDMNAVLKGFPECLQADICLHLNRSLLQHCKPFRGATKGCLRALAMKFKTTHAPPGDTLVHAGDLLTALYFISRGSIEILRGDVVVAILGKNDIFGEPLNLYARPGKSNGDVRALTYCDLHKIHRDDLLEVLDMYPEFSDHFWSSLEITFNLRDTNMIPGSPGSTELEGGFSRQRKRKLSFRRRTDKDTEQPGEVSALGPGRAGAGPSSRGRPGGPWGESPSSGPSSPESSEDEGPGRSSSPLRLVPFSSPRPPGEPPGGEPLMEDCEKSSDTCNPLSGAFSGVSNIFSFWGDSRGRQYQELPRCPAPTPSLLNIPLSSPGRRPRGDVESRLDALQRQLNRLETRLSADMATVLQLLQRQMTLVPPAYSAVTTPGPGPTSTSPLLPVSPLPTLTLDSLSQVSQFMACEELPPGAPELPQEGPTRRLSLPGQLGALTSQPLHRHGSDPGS

DAT, sequence (Q01959 whole entry): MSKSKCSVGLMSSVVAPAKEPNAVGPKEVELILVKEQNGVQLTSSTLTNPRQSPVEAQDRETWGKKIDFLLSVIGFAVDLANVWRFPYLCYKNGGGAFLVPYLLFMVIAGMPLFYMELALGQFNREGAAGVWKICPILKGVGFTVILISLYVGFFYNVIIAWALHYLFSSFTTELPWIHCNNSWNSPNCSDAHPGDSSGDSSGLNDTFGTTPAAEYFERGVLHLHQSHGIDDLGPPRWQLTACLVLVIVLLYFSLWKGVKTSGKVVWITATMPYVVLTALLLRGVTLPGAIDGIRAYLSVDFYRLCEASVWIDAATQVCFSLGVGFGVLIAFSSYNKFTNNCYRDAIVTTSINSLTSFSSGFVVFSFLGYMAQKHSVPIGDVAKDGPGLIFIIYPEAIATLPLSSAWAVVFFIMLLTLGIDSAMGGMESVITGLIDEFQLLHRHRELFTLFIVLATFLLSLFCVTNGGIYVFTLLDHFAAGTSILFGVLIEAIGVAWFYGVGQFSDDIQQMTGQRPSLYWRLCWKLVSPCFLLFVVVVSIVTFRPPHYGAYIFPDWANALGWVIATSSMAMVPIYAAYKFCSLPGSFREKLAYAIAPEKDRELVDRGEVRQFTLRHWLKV
β3, sequence (P13945 whole entry): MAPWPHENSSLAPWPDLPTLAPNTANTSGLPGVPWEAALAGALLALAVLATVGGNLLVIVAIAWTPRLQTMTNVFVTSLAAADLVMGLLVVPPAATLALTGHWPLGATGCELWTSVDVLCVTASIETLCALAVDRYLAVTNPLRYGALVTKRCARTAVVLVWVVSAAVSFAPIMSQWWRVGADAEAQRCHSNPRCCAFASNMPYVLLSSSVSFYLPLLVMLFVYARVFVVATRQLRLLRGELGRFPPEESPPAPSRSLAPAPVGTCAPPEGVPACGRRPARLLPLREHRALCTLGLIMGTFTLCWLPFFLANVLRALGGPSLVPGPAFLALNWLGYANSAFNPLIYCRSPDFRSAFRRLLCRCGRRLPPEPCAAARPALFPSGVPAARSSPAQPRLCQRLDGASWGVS
D5, sequence (P21918 whole entry): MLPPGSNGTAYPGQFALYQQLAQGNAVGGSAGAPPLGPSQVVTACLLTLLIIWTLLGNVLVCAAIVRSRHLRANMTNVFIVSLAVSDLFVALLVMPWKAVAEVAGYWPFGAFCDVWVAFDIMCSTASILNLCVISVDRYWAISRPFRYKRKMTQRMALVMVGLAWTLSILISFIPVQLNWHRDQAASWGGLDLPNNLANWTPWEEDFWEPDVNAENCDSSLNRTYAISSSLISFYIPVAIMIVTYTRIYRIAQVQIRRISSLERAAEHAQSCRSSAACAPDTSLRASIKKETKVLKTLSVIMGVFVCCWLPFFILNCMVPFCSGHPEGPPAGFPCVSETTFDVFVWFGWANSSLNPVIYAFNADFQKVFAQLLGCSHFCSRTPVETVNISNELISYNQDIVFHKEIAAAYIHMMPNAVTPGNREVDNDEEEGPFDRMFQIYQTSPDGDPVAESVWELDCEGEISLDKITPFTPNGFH
NOP, sequence (P41146 whole entry): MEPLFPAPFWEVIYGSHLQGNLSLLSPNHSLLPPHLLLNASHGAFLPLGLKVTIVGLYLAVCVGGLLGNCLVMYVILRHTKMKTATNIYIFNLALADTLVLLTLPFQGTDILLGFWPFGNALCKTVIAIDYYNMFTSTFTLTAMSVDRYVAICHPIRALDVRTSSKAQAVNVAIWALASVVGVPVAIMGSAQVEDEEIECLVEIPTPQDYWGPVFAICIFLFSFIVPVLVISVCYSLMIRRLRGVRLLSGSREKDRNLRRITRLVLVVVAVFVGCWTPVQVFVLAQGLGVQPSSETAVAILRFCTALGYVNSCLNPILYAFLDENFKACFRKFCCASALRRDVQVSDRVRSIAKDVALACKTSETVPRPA
DOR, sequence (P41143 whole entry): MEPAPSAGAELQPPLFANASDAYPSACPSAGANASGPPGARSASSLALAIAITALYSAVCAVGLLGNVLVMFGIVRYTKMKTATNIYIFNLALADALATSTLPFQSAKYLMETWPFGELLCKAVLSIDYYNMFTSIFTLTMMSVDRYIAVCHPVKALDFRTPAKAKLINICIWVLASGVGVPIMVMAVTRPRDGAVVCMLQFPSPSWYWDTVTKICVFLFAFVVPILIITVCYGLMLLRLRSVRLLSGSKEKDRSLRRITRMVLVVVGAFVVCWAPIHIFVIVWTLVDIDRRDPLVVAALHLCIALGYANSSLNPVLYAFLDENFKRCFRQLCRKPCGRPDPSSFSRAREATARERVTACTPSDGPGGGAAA
β1, sequence (P08588 whole entry): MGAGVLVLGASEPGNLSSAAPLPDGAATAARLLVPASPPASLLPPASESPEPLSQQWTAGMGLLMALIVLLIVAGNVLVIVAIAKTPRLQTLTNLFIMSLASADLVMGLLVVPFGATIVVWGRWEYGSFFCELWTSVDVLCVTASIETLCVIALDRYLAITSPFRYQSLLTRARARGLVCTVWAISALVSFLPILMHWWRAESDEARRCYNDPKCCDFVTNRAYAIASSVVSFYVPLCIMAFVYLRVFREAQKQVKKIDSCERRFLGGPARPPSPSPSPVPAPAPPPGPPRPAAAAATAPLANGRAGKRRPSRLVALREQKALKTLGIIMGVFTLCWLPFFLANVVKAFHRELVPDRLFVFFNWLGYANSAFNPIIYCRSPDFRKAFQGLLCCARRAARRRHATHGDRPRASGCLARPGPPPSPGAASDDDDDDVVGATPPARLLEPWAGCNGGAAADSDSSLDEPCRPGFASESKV

In the case of `COc1cc(CCNCc2ccccc2OCCF)c(OC)cc1Br` [compound 1, 2-(4-bromo-2,5-dimethoxyphenyl)-N-(2-(2-fluoroethoxy)benzyl)ethanamine], the inhibition constant (Ki) on Sigma2 is 0.051 µM; at PBR, 0.876 µM; on Sigma1, 0.499 µM; on NOP it was more than 10 µM; at DAT it was more than 10 µM; on D5, more than 10 µM. The inhibition constant (Ki) at β1, at DOR, at β3 and on HERG was more than 10 µM throughout.

In general, Ki refers to the dissociation constant of the complex between target and ligand, obtained from inhibition or displacement. Low readings indicate a stronger hold on the target, high ones a looser hold on the target.
